Results on ten compounds are retold here after patent publication US20220259221A1, “CANNABINOID DERIVATIVES” (CANOPY GROWTH CORPORATION, priority 2019, published 2022).

The term IC50 denotes the midpoint of a concentration-inhibition curve. The term EC50 denotes the concentration needed to bring the measured effect to its halfway point. Low readings indicate greater potency, high ones weaker potency.

The target of experiment [1] is T1, human CB1 receptor (Homo sapiens, UniProt P21554). Briefly: biochemical. On the set-up: host or cells: CHO-K1 (Chinese hamster ovary) cells, stably transfected; membranes prepared in house. The experiment is classed as binding. To be noted: for Selectivity CB1: fold difference in binding between CB1 and CB2, shown in the column of the receptor with higher affinity, 1.00 in both = about the same affinity.
T1 sequence (P21554 whole entry): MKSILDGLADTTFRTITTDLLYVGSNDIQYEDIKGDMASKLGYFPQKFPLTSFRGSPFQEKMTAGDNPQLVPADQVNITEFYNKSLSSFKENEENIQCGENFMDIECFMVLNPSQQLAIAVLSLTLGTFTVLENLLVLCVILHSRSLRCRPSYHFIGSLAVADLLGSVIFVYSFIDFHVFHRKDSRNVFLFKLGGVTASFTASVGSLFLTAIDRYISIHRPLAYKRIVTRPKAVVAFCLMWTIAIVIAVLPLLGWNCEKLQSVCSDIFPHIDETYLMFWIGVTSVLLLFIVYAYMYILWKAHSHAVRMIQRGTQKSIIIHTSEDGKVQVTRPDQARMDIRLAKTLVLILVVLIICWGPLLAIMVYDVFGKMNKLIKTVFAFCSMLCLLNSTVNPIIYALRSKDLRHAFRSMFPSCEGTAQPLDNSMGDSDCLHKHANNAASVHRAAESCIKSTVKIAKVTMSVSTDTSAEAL

The target of experiment [2] is T2, human CB2 receptor (Homo sapiens, UniProt P34972).
T2 construct: host or cells: CHO-K1 (Chinese hamster ovary) cells, stably transfected; membranes prepared in house
T2 sequence (P34972 whole entry): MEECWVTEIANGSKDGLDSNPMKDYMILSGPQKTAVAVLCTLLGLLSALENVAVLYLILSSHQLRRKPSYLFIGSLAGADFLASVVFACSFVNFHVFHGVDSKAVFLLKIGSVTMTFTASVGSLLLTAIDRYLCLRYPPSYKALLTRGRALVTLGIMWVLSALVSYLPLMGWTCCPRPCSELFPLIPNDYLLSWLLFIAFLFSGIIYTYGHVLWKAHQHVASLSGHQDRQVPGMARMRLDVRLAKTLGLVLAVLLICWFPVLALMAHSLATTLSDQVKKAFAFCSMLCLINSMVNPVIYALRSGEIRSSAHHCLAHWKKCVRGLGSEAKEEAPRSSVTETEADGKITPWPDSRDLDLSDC
The experiment is described as follows: CB2 radioligand ([3H]CP55,940) competitive binding assay. To be noted: for Selectivity CB2: fold difference in binding between CB1 and CB2, shown in the column of the receptor with higher affinity, 1.00 in both = about the same affinity. How it is done:
Compounds of the present disclosure were tested for CB1 receptor binding affinity and for CB2 receptor binding affinity. As used herein, “binding affinity” is represented by the IC50 value, which was experimentally determined as described herein. The lower the IC50 value the higher the binding affinity. A compound of the present disclosure may be said to have “binding selectivity” if it has a higher binding affinity for one receptor compared to the other.
The membranes were prepared from CHO-K1 (Chinese hamster ovary) cells stably transfected with the human CB2 receptor (Cat. #ES-111-C; Perkin Elmer, Boston, Mass.). The cells were grown adherently and maintained in Ham's F12 medium containing 10% fetal bovine serum (FBS), penicillin, streptomycin and geneticin (G418) at 37° C. in a humid atmosphere of 5% CO2 following the manufacturer's instructions.
For membrane preparation the cells were washed with PBS and scraped off the plates in cold homogenization buffer (25 mM HEPES (pH 7.4), 2 mM EDTA) containing protease inhibitor cocktail (Sigma Cat. #P8340). The cell suspension was homogenized with a Pro-PK-01200D Polytron Homogenizer (Pro Scientific) and then centrifuged for 30 min at 120,000× g. The supernatant was discarded and the pellet was re-suspended in the homogenization buffer and stored at −80° C. until the time of use.
In this experiment, 3H radiolabeled CP55,940, i.e. [3H]CP55,940 (Perkin Elmer, Boston, Mass.), was used as a radioligand for the CB2 receptor to determine the binding affinity of compounds for the CB2 receptor (Scheme 4; above).
The competition binding experiments (single dose and dose-response) were performed by incubating 0.6 nM of [3H]CP55,940 (specific activity 101 Ci/mmol, Perkin Elmer) and different concentrations of compounds disclosed herein with membranes prepared as above from CHO-K1 cells expressing human CB2 receptor (1 μg of protein/well), 50 mM Tris-HCl (pH 7.4), 5 mM MgCl2, 1 mM CaCl2, and 2 mg/mL BSA.
For the single dose experiments, the compound stocks (usually 10 mM in DMSO) were diluted to working stocks in the binding buffer to give the final compound concentrations of 10 μM and 1 μM. For the dose-response experiments the test compounds were sequentially diluted to provide the desired concentration range for the IC50 determination. In each case the compounds were pre-incubated with the membrane for 20 min, before adding the radioligand.
After incubation with the radioligand for 60 min at 37° C., the incubation was terminated by rapid filtration of assay mixture through MultiScreen®HTS^+ 96-well filter plates (Millipore, Cat. #MSFCNXB), pre-soaked for 60 min with 50 mM Tris-HCl (pH 7.4) containing 0.33% polyethylenimine (PEI). The nonspecific binding (NSB) was determined in the presence of 10 μM unlabelled CP55,940. After drying the filter plate at 50° C. for at least 60 min, the filter-bound radioactivity was determined by scintillation spectrometry using the 1450 MicroBeta Plate Counter (Perkin Elmer, Boston, Mass.). From the dose-response experiments, the IC50 values were determined (see Table 1, CB2 IC50).

In experiment [3] the target is T1, human CB1 receptor. Briefly: PathHunter β-Arrestin functional assay, CB1 receptor, antagonist mode. The experiment is classed as cell-based. From the text:
(§1) In the PathHunter® β-Arrestin system from DiscoveRx (Eurofins, Fremont, Calif.), a small peptide, the ProLink™ (PK), is fused to the intracellular sequence of a GPCR target, and a complementing peptide, the enzyme acceptor (EA) fragment, is fused to β-arrestin. After binding to its specific ligand, the GPCR target recruits β-arrestin, forcing the complementation of the two β-galactosidase enzyme fragments (EA and PK) to produce a functional β-galactosidase enzyme. The enzyme activity, and thus the amount of ligand bound to the GPCR, is detected with a single addition of a reagent cocktail to lyse the cells and produce a chemiluminescent signal before being analyzed using a traditional plate reader.
(§2) PathHunter® CHO-K1 CNR1 β-Arrestin cells (DiscoverRx, cat. Number 93-0959C2) stably expressing CB1 receptor (CB1R) were grown in Ham's F12 medium containing 10% fetal bovine serum (FBS), 1% penicillin/streptomycin, 300 μg/mL Hygromycin B and 800 μg/mL geneticin (G418) and maintained in 37° C. incubators at 5% CO2. […]
(§3) The incubation was terminated by adding the detection reagent (19 parts of 1% CHAPS, 5 parts Emerald-II and 1 part Galacton-Star), equivalent to 50% of the assay volume to each wells. Plates were incubated for 1 hour in the dark at room temperature, followed by chemiluminescence detection using a microplate reader.
(§4) Data were analysed by generating nonlinear regression curves. […]

The target in experiment [4] is T1, human CB1 receptor. The experiment is described as follows: PathHunter β-Arrestin functional assay, CB1 receptor, agonist mode. The format is cell-based.
From the text: as §1, §2, §3, §4

Take `CCCCCc1cc2c(c3c1C(=O)OCO3)[C@@H]1C=C(C)CC[C@H]1C(C)(C)O2` [Compound 1b, 8,8,11-trimethyl-5-pentyl-8a,9,10,12a-tetrahydro-4H,8H-benzo[c][1,3]dioxino[4,5-f]chromen-4-one]: the IC50 in experiment [1] was in the range of 500 to 990 nM. For the same compound, in experiment [2], the IC50 is below 500 nM and the “Selectivity CB2” value is 1.80 fold.

In experiment [1], `CCCCCc1cc2c(c3c1C(=O)OC(C)(C)O3)[C@@H]1C=C(C)CC[C@H]1C(C)(C)O2` [Compound 2b, 2,2,8,8,11-pentamethyl-5-pentyl-8a,9,10,12a-tetrahydro-4H,8H-benzo[c][1,3]dioxino[4,5-f]chromen-4-one] yielded an IC50 below 500 nM. Also, in experiment [2], the IC50 was below 500 nM and the “Selectivity CB2” value was 1.03 fold.

Take `CCCCCc1cc2c(c3c1C(=O)OC(c1ccccc1)O3)[C@@H]1C=C(C)CC[C@H]1C(C)(C)O2` (stereo partly shown) [Compound 3b, 8,8,11-trimethyl-5-pentyl-2-phenyl-8a,9,10,12a-tetrahydro-4H,8H-benzo[c][1,3]dioxino[4,5-f]chromen-4-one]: the IC50 in experiment [1] and in experiment [2] was 1000 to 4990 nM throughout. Besides, the “Selectivity CB1” value in experiment [1] was determined as 1.62 fold.

Regarding `CCCCCc1cc2c(c3c1C(=O)OC(CC(C)=O)(c1ccccc1)O3)[C@@H]1C=C(C)CC[C@H]1C(C)(C)O2` (stereo partly shown) [Compound 12b, 8,8,11-trimethyl-2-(2-oxopropyl)-5-pentyl-2-phenyl-8a,9,10,12a-tetrahydro-4H,8H-benzo[c][1,3]dioxino[4,5-f]chromen-4-one], the IC50 in experiment [1] is above 5000 nM. Also, in experiment [2], the IC50 was above 5000 nM and the “Selectivity CB2” value was determined as 1.33 fold.

`CCCCCc1cc2c(c3c1C(=O)OC(CC(C)=O)(c1ccc(F)cc1)O3)[C@@H]1C=C(C)CC[C@H]1C(C)(C)O2` (stereo partly shown) [Compound 13b, 2-(4-fluorophenyl)-8,8,11-trimethyl-2-(2-oxopropyl)-5-pentyl-8a,9,10,12a-tetrahydro-4H,8H-benzo[c][1,3]dioxino[4,5-f]chromen-4-one]: in experiment [1], the IC50 was in the range of 1000 to 4990 nM and the “Selectivity CB1” value turned out to be 1.00 fold. Further, in experiment [2], the IC50 lay in the range of 1000 to 4990 nM and the “Selectivity CB2” value was found to be 1.00 fold.

As for `CCCCCc1cc2c(c3c1C(=O)OC(CC(C)=O)O3)[C@@H]1C=C(C)CC[C@H]1C(C)(C)O2` (stereo partly shown) [Compound 14b, 8,8,11-trimethyl-2-(2-oxopropyl)-5-pentyl-8a,9,10,12a-tetrahydro-4H,8H-benzo[c][1,3]dioxino[4,5-f]chromen-4-one], in experiment [1], the IC50 is 1000 to 4990 nM and the “Selectivity CB1” value turned out to be 2.69 fold. In addition, the IC50 in experiment [2] lay within 1000 to 4990 nM.

On to `CCCCCc1cc2c(c3c1C(=O)OC(C)O3)[C@@H]1C=C(C)CC[C@H]1C(C)(C)O2` (stereo partly shown) [Compound 16b, 2,8,8,11-tetramethyl-5-pentyl-8a,9,10,12a-tetrahydro-4H,8H-benzo[c][1,3]dioxino[4,5-f]chromen-4-one], for which the IC50 in experiment [1] was below 500 nM; in experiment [3], around 3000 nM; in experiment [2] it was below 500 nM. The “Selectivity CB1” value in experiment [1] was determined as 1.50 fold. Moreover, in experiment [3] (antagonist mode, normalized to rimonabant), the “relative inhibition in comparison to rimonabant” value was “about 35%”. In addition, the concentration giving a half-maximal response (EC50) in experiment [4] is around 252 nM. The “relative efficacy in comparison to CP55,940” value in experiment [4] (agonist mode, normalized to CP55,940) is recorded as “about 7%”.

In the case of `CCCCCc1cc2c(c3c1C(=O)OC(CC)O3)[C@@H]1C=C(C)CC[C@H]1C(C)(C)O2` (stereo partly shown) [Compound 17b, 2-ethyl-8,8,11-trimethyl-5-pentyl-8a,9,10,12a-tetrahydro-4H,8H-benzo[c][1,3]dioxino[4,5-f]chromen-4-one], the half-inhibitory concentration (IC50) in experiment [1] lay in the range of 1000 to 4990 nM. Besides, in experiment [2], the IC50 was below 500 nM and the “Selectivity CB2” value worked out at 12.73 fold.

On to `CCCCCc1cc2c(c3c1C(=O)OC(CC(C)=O)(c1ccc(OC)cc1)O3)[C@@H]1C=C(C)CC[C@H]1C(C)(C)O2` (stereo partly shown) [Compound 21b, 2-(4-methoxyphenyl)-8,8,11-trimethyl-2-(2-oxopropyl)-5-pentyl-8a,9,10,12a-tetrahydro-4H,8H-benzo[c][1,3]dioxino[4,5-f]chromen-4-one], for which, in experiment [1], the IC50 lay in the range of 1000 to 4990 nM and the “Selectivity CB1” value came to 1.00 fold. For the same compound, in experiment [2], the IC50 lay within 1000 to 4990 nM and the “Selectivity CB2” value is listed as 1.00 fold.

In the case of `CCCCCc1cc2c(c3c1C(=O)OC(CC(C)=O)(c1ccc(Cl)cc1)O3)[C@@H]1C=C(C)CC[C@H]1C(C)(C)O2` (stereo partly shown) [Compound 23b, 2-(4-chlorophenyl)-8,8,11-trimethyl-2-(2-oxopropyl)-5-pentyl-8a,9,10,12a-tetrahydro-4H,8H-benzo[c][1,3]dioxino[4,5-f]chromen-4-one], in experiment [1], the IC50 was 1000 to 4990 nM and the “Selectivity CB1” value is 1.00 fold. In experiment [2], the IC50 is 1000 to 4990 nM and the “Selectivity CB2” value was determined as 1.00 fold.
